Test results reported in patent publication US11661413B2, “Pyrazole compounds or salts thereof, preparation method therefor, herbicidal composition and use thereof” (priority 2015, dated 2023).

Assays:
Barnyard grass = experiment: weed control effect in post emergence stage, greenhouse pot spray; assay type: in vivo; settings: sprayed at 2-3 leaf stage, after 3 weeks
Method: (§1) The activity level standard of harmful plant damage (i.e. growth inhibition rate) is as follows: The above described growth control rate is fresh weight control rate. Monocotyledonous and dicotyledonous weed seeds and main crop seeds (i.e. wheat, corn, rice, soybean, cotton, oilseed, millet and Sorghum) were put into a plastic pot loaded with soil. Then covered with 0.5-2 cm soil, the seeds were allowed to grow in good greenhouse environment. The test plants were treated at 2-3 leaf stage 2-3 weeks after sowing. […] The solution was sprayed to the plants with a sprayer. Then the plants were cultured for 3 weeks in the greenhouse.

Flixweed = experiment: as above; assay type: in vivo; settings: 16 g/mu, sprayed at 2-3 leaf stage, after 3 weeks
Method: as §1

Compound	weed control effect (activity level), Barnyard grass (Barnyard grass; 1 g/mu)	weed control effect (activity level), Barnyard grass (Barnyard grass; 2 g/mu)	weed control effect (activity level), Barnyard grass (Barnyard grass; 4 g/mu)	weed control effect (activity level), Barnyard grass (Barnyard grass; 8 g/mu)	weed control effect (activity level), Barnyard grass (Barnyard grass; 16 g/mu)	weed control effect (activity level), Flixweed (Flixweed)
Cc1cnn(Cc2c(S(C)(=O)=O)ccc(C(=O)c3cnn(C)c3O)c2Cl)c1 [Compound 7]	2 (above 20% growth inhibition rate)	3 (above 30% growth inhibition rate)	3 (above 30% growth inhibition rate)	6 (above 60% growth inhibition rate)	6 (above 60% growth inhibition rate)	10
Cc1ccn(Cc2c(S(C)(=O)=O)ccc(C(=O)c3cnn(C)c3O)c2Cl)n1 [Compound 8]	2 (above 20% growth inhibition rate)	2 (above 20% growth inhibition rate)	4 (above 30% growth inhibition rate)	7 (above 70% growth inhibition rate)	8 (above 80% growth inhibition rate)	10
Cc1cc(C)n(Cc2c(S(C)(=O)=O)ccc(C(=O)c3cnn(C)c3O)c2Cl)n1 [Compound 9]	2 (above 20% growth inhibition rate)	2 (above 20% growth inhibition rate)	3 (above 30% growth inhibition rate)	5 (above 50% growth inhibition rate)	5 (above 50% growth inhibition rate)	10
Cn1ncc(C(=O)c2ccc(S(C)(=O)=O)c(Cn3cc(Cl)cn3)c2Cl)c1O [Compound 10]	2 (above 20% growth inhibition rate)	4 (above 30% growth inhibition rate)	4 (above 30% growth inhibition rate)	7 (above 70% growth inhibition rate)	8 (above 80% growth inhibition rate)	10
Cn1nc(C2CC2)c(C(=O)c2ccc(S(C)(=O)=O)c(Cn3cc(Cl)cn3)c2Cl)c1O [Compound 11]	2 (above 20% growth inhibition rate)	4 (above 30% growth inhibition rate)	4 (above 30% growth inhibition rate)	6 (above 60% growth inhibition rate)	7 (above 70% growth inhibition rate)	10
Cc1cnn(Cc2c(S(C)(=O)=O)ccc(C(=O)c3c(C4CC4)nn(C)c3O)c2Cl)c1 [Compound 12]	2 (above 20% growth inhibition rate)	4 (above 30% growth inhibition rate)	6 (above 60% growth inhibition rate)	7 (above 70% growth inhibition rate)	8 (above 80% growth inhibition rate)	10
CCn1nc(C)c(C(=O)c2ccc(S(C)(=O)=O)c(Cn3cc(C)cn3)c2Cl)c1O [Compound 16]	2 (above 20% growth inhibition rate)	3 (above 30% growth inhibition rate)	4 (above 30% growth inhibition rate)	4 (above 30% growth inhibition rate)	6 (above 60% growth inhibition rate)	10
CCn1nc(C)c(C(=O)c2ccc(S(C)(=O)=O)c(Cn3nc(C)cc3C)c2Cl)c1O [Compound 17]	2 (above 20% growth inhibition rate)	2 (above 20% growth inhibition rate)	2 (above 20% growth inhibition rate)	4 (above 30% growth inhibition rate)	5 (above 50% growth inhibition rate)	10
CCn1ncc(C(=O)c2ccc(S(C)(=O)=O)c(Cn3cc(C)cn3)c2Cl)c1O [Compound 19]	2 (above 20% growth inhibition rate)	3 (above 30% growth inhibition rate)	3 (above 30% growth inhibition rate)	4 (above 30% growth inhibition rate)	4 (above 30% growth inhibition rate)	10
CCn1ncc(C(=O)c2ccc(S(C)(=O)=O)c(Cn3nc(C)cc3C)c2Cl)c1O [Compound 20]	3 (above 30% growth inhibition rate)	4 (above 30% growth inhibition rate)	6 (above 60% growth inhibition rate)	6 (above 60% growth inhibition rate)	8 (above 80% growth inhibition rate)	10
CCn1nc(C2CC2)c(C(=O)c2ccc(S(C)(=O)=O)c(Cn3cc(C)cn3)c2Cl)c1O [Compound 22]	2 (above 20% growth inhibition rate)	4 (above 30% growth inhibition rate)	6 (above 60% growth inhibition rate)	6 (above 60% growth inhibition rate)	10	10
CCn1nc(C2CC2)c(C(=O)c2ccc(S(C)(=O)=O)c(Cn3nc(C)cc3C)c2Cl)c1O [Compound 23]	2 (above 20% growth inhibition rate)	3 (above 30% growth inhibition rate)	5 (above 50% growth inhibition rate)	7 (above 70% growth inhibition rate)	8 (above 80% growth inhibition rate)	10
CCc1nn(CC)c(O)c1C(=O)c1ccc(S(C)(=O)=O)c(Cn2cc(C)cn2)c1Cl [Compound 25]	2 (above 20% growth inhibition rate)	3 (above 30% growth inhibition rate)	4 (above 30% growth inhibition rate)	4 (above 30% growth inhibition rate)	5 (above 50% growth inhibition rate)	10
CCc1nn(CC)c(O)c1C(=O)c1ccc(S(C)(=O)=O)c(Cn2nc(C)cc2C)c1Cl [Compound 26]	2 (above 20% growth inhibition rate)	2 (above 20% growth inhibition rate)	4 (above 30% growth inhibition rate)	3 (above 30% growth inhibition rate)	5 (above 50% growth inhibition rate)	10
